Our source for the CC50 and EC50 values is patent publication US20110144069A1, “COMPOUNDS FOR TREATING VIRAL INFECTIONS” (priority 2006, published 2011).

The test system of one series is mock-infected MT-4 cells. Description: Compound toxicity in mock-infected cells (WST-1 assay). The format is cell-based. The following applies: toxicity measure, host cells; read-out: TC50 (concentration of compound that results in death of 50% of the host cells). On the procedure: (§1) The HTLV-1 transformed T cell line, MT-4, is highly susceptible to HIV-1 infection. Anti-HIV-1 agents were evaluated in this target cell line by protection from the HIV-induced cytopathic effect. In this assay, viability of both HIV-1 and mock-infected cells was assessed in a colorimetric assay that monitors the ability of metabolically-active cells to reduce the tetrazolium salt WST-1. Cytoprotection by antiviral compounds is indicated by the positive readout of increased WST-1 cleavage.
(§2) Briefly, exponentially growing MT-4 cells were mock-infected or batch-infected with the HIV-1 laboratory strain, NL4-3, at a multiplicity of infection of 0.0005. Following a two hour infection, the cells were washed to remove unbound virus and plated in the presence of increasing concentrations of compound. After four days incubation, cytoprotection in the infected cells and compound toxicity in mock-infected cells were analyzed using the WST-1 assay.
On the technique in general: Formazan colour is commonly taken as a measure of viable cells.

Series [1] relates to HIV-1 laboratory strain, NL4-3. The series is described as follows: MT-4 Cytoprotection Assay (protection from HIV-induced cytopathic effect, WST-1). The class given is cell-based. The following applies: Human immunodeficiency virus 1, NL43; representative compounds; read-out: EC50 of less than about 100 nm. The procedure:
MT-4 Cytoprotection Assay
as §1, §2
Background: Cytopathic effects are the visible damage that an infection or toxin causes in cultured cells.

For `C=C(C)[C@@H]1CC[C@]2(C(=O)NCc3ccc(C(=O)O)cc3)CC[C@]3(C)[C@H](CC[C@@H]4[C@@]5(C)CC[C@H](OC(=O)CC(C)(C)C(=O)O)C(C)(C)[C@@H]5CC[C@]43C)[C@@H]12` [Compound 71], in the series on mock-infected MT-4 cells, the CC50 is around 7.7 µM. Still for that read-out and setting: in the case of `C=C(C)[C@@H]1CC[C@]2(C(=O)NCc3ccccc3C(=O)O)CC[C@]3(C)[C@H](CC[C@@H]4[C@@]5(C)CC[C@H](OC(=O)CC(C)(C)C(=O)O)C(C)(C)[C@@H]5CC[C@]43C)[C@@H]12` [Compound 73] it was around 6.3 µM. For `CC(C)[C@@H]1CC[C@]2(C(=O)NCCC3CCCCC3)CC[C@]3(C)[C@H](CC[C@@H]4[C@@]5(C)CC[C@H](OC(=O)CC(C)(C)C(=O)O)C(C)(C)[C@@H]5CC[C@]43C)[C@@H]12` [Compound 124], the EC50 in series [1] is below 0.1 µM.

For orientation: EC50 means the midpoint of the concentration-response curve.
